Laboratory results from EPA's ToxValDB 9.5 (doi:10.2903/j.efsa.2006.61r).
≈ marks a conversion by molar mass, not a printed value.

Experiments:
Apis mellifera = settings: acute, mortality
Colinus virginianus = settings: for LD50: acute, oral, mortality
Oncorhynchus mykiss = settings: acute; duration: 96 hours; mortality
Pontoscolex corethrurus = settings: chronic/long-term
Tagia sp. = settings: acute; duration: 14 days; mortality
Daphnia magna = settings: chronic/long-term; duration: 21 days; reproduction
Bibionidae = settings: chronic/long-term; duration: 28 days; seedling emergence
Rattus norvegicus = settings: for LD50: acute, oral, mortality
Anas platyrhynchos = settings: acute; oral; unspecified; mortality
Trichogramma cacoeciae = settings: not reported

For `Cc1cc(C)nc(Nc2ccccc2)n1` [Pyrimethanil], the LD50 (Apis mellifera; dermal) was greater than 100 µg/piece, the LD50 (Apis mellifera; duration: 48 hours, oral, unspecified) was greater than 100 µg/piece and the LD50 (Colinus virginianus; diet) was greater than 874 mg/kg. The LD50 (Colinus virginianus) was greater than 2000 mg/kg, the NOAEL (Colinus virginianus; reproduction developmental) was 96 mg/kg-day and the LEL (Encarsia formosa; acute, duration: 6 days, mortality) was 1000 g/ha. It also gave an LEL (Encarsia formosa; not reported, reproduction) of 1000 g/ha, an LC50 (Oncorhynchus mykiss) of 10.6 mg/L (≈ 53 µM) and an NOEC (Pontoscolex corethrurus) of 4.12 mg/kg. It also gave an LC50 (Tagia sp.) of 626 mg/kg, an NOEC (Daphnia magna) of 0.94 mg/L and an NOEC (Bibionidae) of 4 mg/L. It also gave an LD50 (Rattus norvegicus; F) of 5970 mg/kg, an LD50 (Rattus norvegicus; M) of 4150 mg/kg and an NOAEL (Rattus norvegicus; chronic, duration: 2 years, clinical chemistry) of 17 mg/kg-day. It also gave an NOAEL (Rattus norvegicus; reproduction developmental, M, body weight) of 18.4 mg/kg-day, an NOAEL (Rattus norvegicus; subchronic, duration: 90 days, organ weight) of 5.4 mg/kg-day and an LD50 (Anas platyrhynchos) greater than 2000 mg/kg. It also gave an LEL (Trichogramma cacoeciae; mortality) of 1000 g/ha and an LEL (Trichogramma cacoeciae; reproduction) of 1000 g/ha.
